Tests used:
Cl. tyrobutyricum 2753 = assay: Sensitivity testing for Clostridium species in cooked meat medium; format: cell-based; conditions: highest level tested 2000 ppm APP20010215, anaerobically at 37° C.
Experimental: Stock solutions of APP215 (0.5, 1 and 2%) were prepared and filter-sterilised. Cooked meat medium (CMM, Oxoid) was prepared by distributing 1 g of the medium to individual test tubes, which were then filled with 8.9 ml water. After autoclaving 100 μl of the APP stock solutions were added, to give final concentrations of 0, 500, […] and 2000 ppm APP. The tests were inoculated with […] of Clostridium spores, to give an inoculum level of ca. 10 cfu/ml. The tubes were overlaid with 3 ml of 2% agar to maintain anaerobicity. The tests were incubated at 37° C., and examined daily for signs of growth (turbidity, gas production).

B. cereus 204 [1] = assay: Chicken soup trial at 20° C.; format: cell-based, Bacillus cereus; conditions: chicken soup at 20° C., TCSM010430, APP20010213
From the text: (§1) A local supermarket brand of cream of chicken soup was used as a model food system. 600 g packs were purchased from the local supermarket. This was a ‘fresh home-made type’ of soup that was stored in the chill cabinet, with a short shelf life. It was chosen because it is a rich, nutritious food system containing a range of food components including meat, dairy and vegetable.
(§2) Ingredients were labelled as: chicken stock (water, duck fat, chicken, salt, flavourings, yeast extracts, pork gelatine, glucose syrup, vegetable concentrate, milk protein, sugar, malto-dextrin, vegetable oil, citric acid, lactose, chicken fat), ilk, chicken (9%), cream (8%), onion, potato, vegetable oil, modified maize starch, wheat flour, lemon juice, salt, white pepper. pH 5.912. Protein: 3.3%; carbohydrate: 4.7%; fat: 7.2%; fibre: 0.2%; sodium: 0.1%
(§3) For the test the soup was mixed 2:1 in water (to facilitate sampling and mixing) and sterilised by autoclaving at 121° C. for 15 minutes. For each experiment the pH of the soup was recorded; this was between pH 5.79-5.88.
(§4) For TCS010430/20 (incubated at 20° C.) samples were prepared in 18.8 g quantities, to which 1 g of a suitable filter-sterilised APP stock solution was added and an appropriately diluted 0.2 ml inoculum. Great care was again taken to ensure homogeneous distribution of the APP and micro-organisms. This test was sampled by viable count test on a daily basis.

Ps. fluorescens 3756 = assay: Chicken soup trial at 20° C.; format: cell-based, Pseudomonas fluorescens
From the text: as §1, §2, §3, §4

B. nivea 163642 = assay: Test in apple juice; format: cell-based; conditions: apple juice (pH 3.42) at 25° C., TAJ010530
Experimental: (§5) 8.9 ml apple juice samples (pH 3.42) were prepared and autoclaved. Batch number APP20010215 (at 138 mg/ml) was used to prepare filter-sterilised stock solutions for 1 ml addition to the juice to achieve 0, 1000, 2000 ppm APP. Tests were inoculated with 100 μl of an appropriately diluted overnight SLM broth of yeast culture or ascospore suspension of Byssochlamys spores prepared earlier. The tests were incubated at 25° C., and examined daily for signs of growth (e.g. turbidity, mycelium development).

[2] = system: Byssochlamys fulva 040021; assay: Test in apple juice; format: cell-based; conditions: apple juice (pH 3.42) at 25° C., TAJ010530
Experimental: as §5

Candida parapsilosis 458 = assay: Test in apple juice; format: cell-based; conditions: apple juice (pH 3.42) at 25° C., TAJ010530
Experimental: as §5

[3] = system: Hanseniaspora uvarum CBS5074; assay: Test in apple juice; format: cell-based; conditions: for Growth inhibition: apple juice (pH 3.42) at 25° C., TAJ010530
Experimental: as §5

[4] = system: Rhodotorula mucilaginosa var mucilaginosa CBS8161; assay: Test in apple juice; format: cell-based; conditions: for Growth inhibition: apple juice (pH 3.42) at 25° C., TAJ010530
Experimental: as §5

[5] = system: Zygosaccharomyces bailii CRA229; assay: Test in apple juice; format: cell-based; conditions: for Growth controlled for: apple juice (pH 3.42) at 25° C., TAJ010530
Experimental: as §5

S. cerevisiae ATCC9763 = assay: Test in apple juice; format: cell-based, Saccharomyces cerevisiae; conditions: 2000 ppm; apple juice (pH 3.42) at 25° C., TAJ010530
Experimental: as §5

B. cereus 204 [6] = assay: Test in cooked minced chicken slurry; format: cell-based, Bacillus cereus; conditions: 2000 ppm; minced chicken slurry at 8° C., pH 6.42, TCC010704
Experimental: (§6) 1 kg of minced chicken (mainly lean meat) was purchased from the local butcher. This was mixed with 1 litre of BHI, mixed and dispensed as 100 g samples prior to autoclaving. When still warm, the meat was re-mixed thoroughly. When cooked, the meat was inoculated with 1 ml of 10^5 spores or cells (from an overnight broth), and re-mixed. The samples were then divided into 3×25 g portions, to which 0.5 ml of filter-sterilised APP20010215 was added (as 5% or 10% stock solutions) or water. An initial viable count was taken, and the samples then incubated at 8° C. and tested twice weekly. The pH of the chicken slurry was 6.42.

Ps. fluorescens 327 = assay: Test in cooked minced chicken slurry; format: cell-based, Pseudomonas fluorescens; conditions: 2000 ppm, minced chicken slurry at 8° C.
Experimental: as §6

[7] = 2000 ppm, chicken soup at 20° C., TCSM010430, APP20010213

For `O=C1CC(CO)OC=C1O` (stereo not drawn) [APP, Ascopyrone P], the Growth inhibition (Cl. tyrobutyricum 2753) was “No growth inhibition”, the Effect on growth (B. cereus 204 [1]; 500 ppm) was “No significant effect with 500 ppm” and the Effect on growth (B. cereus 204 [1]; 1000 ppm) was “Extension of lag with 1000 ppm”. The “Total inhibition for” value (B. cereus 204 [1]; 2000 ppm) was “Total inhibition by 2000 ppm for >42 days”, the Effect on growth (Ps. fluorescens 3756; 1000 ppm, chicken soup at 20° C., TCSM010430, APP20010213) was “No significant effect with 1000 ppm” and the Counts (Ps. fluorescens 3756; [7]) was “undetectable)”. For the same compound, the “Total inhibition for” value (Ps. fluorescens 3756; [7]) was “Total inhibition by 2000 ppm for >42 days (counts”, the “Total inhibition (effect on growth of target organism by 2000 ppm APP)” value (Ps. fluorescens 3756; Chicken soup at 20° C. pH 5.8) was “Ps. fluorescens” and the Growth inhibition (B. nivea 163642; 1000 ppm) was “No growth inhibition”. For the same compound, the Growth inhibition (B. nivea 163642; 2000 ppm) was “No growth inhibition”, the Growth inhibition ([2]; 1000 ppm) was “No growth inhibition” and the Growth inhibition ([2]; 2000 ppm) was “No growth inhibition”. For the same compound, the Growth inhibition (Candida parapsilosis 458; 1000 ppm) was “No growth inhibition”, the Growth inhibition (Candida parapsilosis 458; 2000 ppm) was “No growth inhibition” and the Growth inhibition ([3]; 1000 ppm) was “No growth inhibition”. For the same compound, the Growth inhibition ([3]; 2000 ppm) was “No growth inhibition”, the “No inhibition (effect on growth of target organism by 2000 ppm APP)” value ([3]; Apple juice at ambient pH 3.4) was “H. uvarum” and the Growth inhibition ([4]; 1000 ppm) was “No growth inhibition”. The Growth inhibition ([4]; 2000 ppm) was “No growth inhibition”, the “No inhibition (effect on growth of target organism by 2000 ppm APP)” value ([4]; Apple juice at ambient pH 3.4) was “Rh. mucilaginosa” and the “Growth controlled for” value ([5]; 1000 ppm) was 34 days. The “Growth controlled for” value ([5]; 2000 ppm) was 34 days, the “Partial inhibition (effect on growth of target organism by 2000 ppm APP)” value ([5]; Apple juice at ambient pH 3.4) was “Z. bailii” and the “Growth controlled for” value (S. cerevisiae ATCC9763) was 1 days. The Effect on growth (B. cereus 204 [6]) was “Partial inhibition by 2000 ppm”, the “10^6 reached at” value (Ps. fluorescens 327; TCC010704, controls 3 d) was 10 d and the Effect on growth (Ps. fluorescens 327; pH 6.42, TCC010704) was “No total inhibition”.
